Data taken from article PMC6457190, “Tridecaptin-inspired antimicrobial peptides with activity against multidrug-resistant Gram-negative bacteria” (MedChemComm, 2019).
Where a SMILES comes first, the peptide text is derived from it. [ ]: non-standard residue; d: D form. The star is where a group is joined. dOrn = NCCC[C@@H](N)C(=O)O; Octanoyl = CCCCCCCC(=O)*; Orn = NCCC[C@H](N)C(=O)O

Legend:
A. baumannii = assay type: cell-based, Acinetobacter baumannii; conditions: 18 h
Procedure: (§1) IV. Antimicrobial testing
(§2) All minimum inhibitory concentrations (MICs) were determined according to Clinical and Standards Laboratory Institute (CLSI) guidelines. Briefly, peptides were dissolved in Muller-Hinton Broth (MHB) and serial dilutions made across a 96 well plate. Each well was inoculated with a suspension of the required bacterial strain to reach a final inoculum of 5 x 10^5 colony forming units per mL. The MIC was taken as the lowest concentration with no visible growth after 18 hours.
(§3) V. Additional information on multidrug resistant strains
(§4) Organism Resistant Susceptible
Acinetobacter baumannii Cefotaxime Imipenem
Isolated from sewage contaminated Tetracycline Colistin water (Tripoli, Lebanon). Ofloxacin Tobramycin
(§5) Acinetobacter baumannii ACM 11 Ceftazimide
(§6) Acinetobacter baumannii ACM 29 Ceftazimide
(§7) Isolated from peritoneum of 3-year- Imipenem

K. pneumoniae IMP 177 = assay type: cell-based, Klebsiella pneumoniae; conditions: IMP 177, 18 h
Procedure: as §1, §2

K. pneumoniae IMP 216 = assay type: cell-based, Klebsiella pneumoniae; conditions: IMP 216, 18 h
Procedure: as §1, §2

K. pneumoniae IMP 170 = assay type: cell-based, Klebsiella pneumoniae; conditions: IMP 170, 18 h
Procedure: as §1, §2

K. pneumoniae IMP 485 = assay type: cell-based, Klebsiella pneumoniae; conditions: IMP 485, 18 h
Procedure: as §1, §2

K. pneumoniae = assay type: cell-based, Klebsiella pneumoniae; conditions: 18 h
Procedure: as §1, §2

K. pneumoniae IMP 204 = assay type: cell-based, Klebsiella pneumoniae; conditions: IMP 204, 18 h
Procedure: as §1, §2

[1] = tested on: K. pneumoniae and E. cloacae strains; assay type: cell-based, Klebsiella pneumoniae, Enterobacter cloacae; conditions: 18 h
Procedure: The first amino acid substitution we explored was replacement of D-allo-Ile12 with D-Val, which occurs in natural TriA2 variants. Fmoc-D-Val is ∼30 times less expensive than Fmoc-D-allo-Ile (according to Fluorochem pricing). […] The minimum inhibitory concentrations (MICs) of Oct-TriA1 against K. pneumoniae and E. cloacae strains were typically 6.25 μg mL^–1 but […] against carbapenemase-producing A. baumannii strains (25 μg mL^–1).
(§8) MilliQ water and solvent B = 0.1 % TFA in ACN. A gradient method was employed, starting from 20 % B and 80 % A for 2 min, ramping up to 95 % B over 18 min, ramping down to 20 % B over 0.1 min before staying at 20 % B for 3.9 min. High resolution mass spectrometry (HRMS) spectra of all peptides were recorded by Analytical Services and Environmental Projects (ASEP) at Queen’s University Belfast on a Waters LCT Premier ToF mass spectrometer using the electrospray ionisation (ESI) technique.
as §1
as §2, with “The MIC was taken as the lowest concentration with no visible growth after 18 hours.” left out

A. baumannii ACM 29 = assay type: cell-based, Acinetobacter baumannii; conditions: ACM 29, 18 h
Procedure: as §1, §2
V. Additional information on multidrug resistant strains […]
Organism Resistant Susceptible […]
as §6, §7

P. pseudoalcaligenes = assay type: cell-based, Pseudomonas pseudoalcaligenes; conditions: 18 h
Procedure: as §1, §2

Equine erythrocytes = assay type: cell-based, horse; conditions: red cells of equine, 100 μg mL^–1
Procedure: Having assessed the antimicrobial activity of peptides 1–8 we next proceeded to assess their haemolytic activities (Table 2). Haemolytic activity was tested at 100 μg mL^–1, as the concentration required for haemolysis should be higher than antimicrobial MICs. Equine erythrocytes were exposed to peptides 1–8 and incubated for 30 min at 37 °C (Table 2). […] The low haemolytic activity observed for Oct-TriA2 (2,8-D-Lys, 7-Lys) (8) is consistent with its poor antimicrobial activity. […]
VI. Haemolytic activity assays
A 96-well plate was first prepared to contain phosphate-buffered saline (PBS) solutions (100 μL) of tridecaptin analogues 1 – 8 (200 μg/mL) (experiments run in triplicate). 0.1 % Triton X-100 (100 μL) was used as a positive control, while PBS (100 μL) was used as a blank. After the plate had been prepared, defibrinated horse blood (0.5 mL, VWR International) was diluted with phosphate-buffered saline (9.5 mL) and gently shaken. The resulting mixture was centrifuged (5600 rpm, 5 min) using a Thermo Scientific Heraeus Labofuge 200 centrifuge and the supernatant carefully removed. This process was repeated three more times to remove any free hemoglobin. The resulting erythrocyte pellet was gently resuspended in 9.5 mL of PBS. Aliquots of the resulting mixture (100 μL) were added to the appropriate wells on the 96-well plate using a multichannel pipette and the plate incubated at 37 °C for 30 min. The samples were gently mixed by pipetting, and 20 μL of each was added to 200 μL of PBS. Once again, the samples were gently mixed. The diluted samples were then centrifuged (7000 rpm, 5 min) using a SciSpin MINI Microfuge. Supernatant (150 μL) from each sample was added to a new 96-well plate. The absorbance of each sample was individually measured at 415 nm using a Denovix DS-11 FX+ Spectrophotometer. Percent hemolysis of the peptides was calculated relative to Triton X- 100, while the PBS negative control was used as a blank.

E. cloacae = assay type: cell-based, Enterobacter cloacae; conditions: 18 h
Procedure: as §1, §2

A. baumannii ACM 11 = assay type: cell-based, Acinetobacter baumannii; conditions: ACM 11, 18 h
Procedure: as §1, §2, §3, §4, §5

A. baumannii strains = assay: MIC; assay type: cell-based, Acinetobacter baumannii; conditions: against the A. baumannii strains
Text: (§9) We next proceeded to replace the D-Dab and L-Dab residues, found at positions 2 and 8, and 7 respectively. […] It was previously shown that D-Dab8 is essential for antimicrobial activity,[18] and an experimentally derived model of Oct-TriA1 bound to its cellular receptor, the peptidoglycan intermediate lipid II, supports this observation.[12] Therefore we first prepared peptides in which only the amino acids at positions 2 and 7 were substituted with Lys or Orn (D/L configuration retained). […] Finally, the Lys/Orn substitutions at the 2, 7 and 8 positions were also incorporated into TriA2 analogues, yielding Oct-TriA2 (2,8-D-Orn, 7-Orn) (7) and Oct-TriA2 (2,8-D-Lys, 7-Lys) (8).
as §8, §1
(§10) All minimum inhibitory concentrations (MICs) were determined according to Clinical and Standards Laboratory Institute (CLSI) guidelines. […]

K. pneumoniae strains = assay: MIC; assay type: cell-based, Klebsiella pneumoniae; conditions: against the K. pneumoniae strains
Text: as §9, §8, §1, §10

Row | Peptide MIC (A. baumannii) [μg mL^–1] | Peptide MIC (K. pneumoniae IMP 177) [μg mL^–1] | Peptide MIC (K. pneumoniae IMP 216) [μg mL^–1] | Peptide MIC (K. pneumoniae IMP 170) [μg mL^–1] | Peptide MIC (K. pneumoniae IMP 485) [μg mL^–1] | Peptide MIC (K. pneumoniae) [μg mL^–1] | Peptide MIC (K. pneumoniae IMP 204) [μg mL^–1] | minimum inhibitory concentrations (MICs), typical value [1] [μg mL^–1] | Peptide MIC (A. baumannii ACM 29) [μg mL^–1] | Peptide MIC (P. pseudoalcaligenes) [μg mL^–1] | Peptide MIC (E. cloacae) [μg mL^–1] | Peptide MIC (A. baumannii ACM 11) [μg mL^–1] | Structure (SMILES) | % haemolysis (Equine erythrocytes) [%] | antimicrobial activity relative to Oct-TriA1 (A. baumannii strains) | antimicrobial activity relative to Oct-TriA1 (K. pneumoniae strains)
1 | 12.5 | 6.25 | 6.25 | 6.25 | 6.25 | 6.25 | 12.5 | ~6.25 | 25 | 50 | 3.13 | 25 | CCCCCCCC(=O)N[C@@H](C(=O)N[C@H](CCN)C(=O)NCC(=O)N[C@H](CO)C(=O)N[C@H](Cc1c[nH]c2ccccc12)C(=O)N[C@@H](CO)C(=O)N[C@@H](CCN)C(=O)N[C@H](CCN)C(=O)N[C@@H](Cc1ccccc1)C(=O)N[C@@H](CCC(=O)O)C(=O)N[C@H](C(=O)N[C@@H](C(=O)N[C@@H](C)C(=O)O)[C@@H](C)CC)C(C)C)C(C)C [Peptide 1, Oct-TriA1, reference compound] | 89.6 | – | –
2 | 25 | 12.5 | 12.5 | 25 | 12.5 | 50 | 12.5 | – | 50 | 6.25 | 12.5 | 25 | CCCCCCCC(=O)N[C@@H](C(=O)N[C@H](CCCN)C(=O)NCC(=O)N[C@H](CO)C(=O)N[C@H](Cc1c[nH]c2ccccc12)C(=O)N[C@@H](CO)C(=O)N[C@@H](CCCN)C(=O)N[C@H](CCCN)C(=O)N[C@@H](Cc1ccccc1)C(=O)N[C@@H](CCC(=O)O)C(=O)N[C@H](C(=O)N[C@@H](C(=O)N[C@@H](C)C(=O)O)C(C)C)C(C)C)C(C)C [Peptide 7, Oct-TriA2 (2,8-D-Orn, 7-Orn)] (Octanoyl-[dV][dOrn]G[dS][dW]S[Orn][dOrn]FEV[dV]A-OH) | 39.8 | comparable activity | two- to four-fold less active
